Measurements as given in BindingDB's records for patent US20230365530 (The Asean Foundation, 2023).

Molecular target: T1, Histone-lysine N-methyltransferase EHMT2 (Homo sapiens, UniProt Q96KQ7)
T1 sequence (Q96KQ7 whole entry): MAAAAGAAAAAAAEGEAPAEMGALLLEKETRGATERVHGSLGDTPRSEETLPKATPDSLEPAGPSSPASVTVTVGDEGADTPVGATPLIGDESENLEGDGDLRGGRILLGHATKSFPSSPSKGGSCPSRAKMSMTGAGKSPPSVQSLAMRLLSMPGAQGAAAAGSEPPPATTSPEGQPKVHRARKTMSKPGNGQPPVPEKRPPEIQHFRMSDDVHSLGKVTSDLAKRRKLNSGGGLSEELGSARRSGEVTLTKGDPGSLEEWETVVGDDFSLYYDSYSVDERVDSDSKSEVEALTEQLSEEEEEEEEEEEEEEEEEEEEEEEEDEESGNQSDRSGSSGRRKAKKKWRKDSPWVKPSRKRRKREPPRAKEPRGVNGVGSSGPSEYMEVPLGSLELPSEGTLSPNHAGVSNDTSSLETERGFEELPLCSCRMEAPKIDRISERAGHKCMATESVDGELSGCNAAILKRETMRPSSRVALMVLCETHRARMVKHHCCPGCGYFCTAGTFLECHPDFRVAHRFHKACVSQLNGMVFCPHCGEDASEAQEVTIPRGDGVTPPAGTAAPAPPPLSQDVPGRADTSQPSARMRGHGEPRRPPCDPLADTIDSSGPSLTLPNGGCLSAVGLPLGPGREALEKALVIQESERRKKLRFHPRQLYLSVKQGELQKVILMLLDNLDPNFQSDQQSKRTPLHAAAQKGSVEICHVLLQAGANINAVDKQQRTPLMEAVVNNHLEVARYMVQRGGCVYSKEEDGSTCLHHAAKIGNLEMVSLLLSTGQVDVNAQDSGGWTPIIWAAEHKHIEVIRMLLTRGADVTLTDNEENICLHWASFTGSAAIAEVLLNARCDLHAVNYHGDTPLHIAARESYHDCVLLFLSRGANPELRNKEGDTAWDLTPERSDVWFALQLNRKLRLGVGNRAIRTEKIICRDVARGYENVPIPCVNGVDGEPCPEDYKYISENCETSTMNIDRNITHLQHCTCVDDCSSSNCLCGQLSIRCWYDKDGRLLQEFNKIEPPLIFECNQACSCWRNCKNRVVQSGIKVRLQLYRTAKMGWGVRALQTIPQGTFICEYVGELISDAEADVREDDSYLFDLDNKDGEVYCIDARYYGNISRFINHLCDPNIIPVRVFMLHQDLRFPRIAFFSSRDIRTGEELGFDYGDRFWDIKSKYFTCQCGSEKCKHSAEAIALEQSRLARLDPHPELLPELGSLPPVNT
Experiment: Enzyme Inhibitory Efficacy Assay
Method: Specific experimental methods are as follows. First, the compounds of Examples 1 to 89 of 1 nM to 100 μM (4 conc.) were put into a 384 well plate (25 μL/well), and 2 μM […] enzyme (4 conc.) was put into the 384 well plate (25 μL/well). The plate was then centrifuged at 1,500 rpm for 5 seconds after sealing the plate with plate sealing foil. After incubating the EHMT2/G9a enzyme, SAM, and the compounds of Examples above at room temperature for 10 minutes, 2 μM histone H3 peptide (4 conc.) was added to the 384-well plate (25 μL/well). After sealing the plate with plate sealing foil and centrifuging at 1,500 rpm for 5 seconds, an enzymatic reaction was performed at room temperature for 1 hour. Upon completion of the enzyme reaction, 5 μL each of 200 nM Ulight -Streptavidin (4 conc.) and 8 nM Eu-antibody (4 conc.) was added to each well of the plate. The plate was sealed with plate sealing foil, centrifuged at 1,500 rpm for 5 seconds and reacted at room temperature for 1 hour. The signal values were measured with Envision (Ex 320 nm, Em 665 nm), and all background values obtained by reacting without enzyme were deleted from the measured raw data values.

SMILES	IC50 [nM]
COc1cc2c(NC3CCN(C(C)C)CC3)nc(N3CC(F)(F)C3)nc2cc1C#CCCN1CCCC1 [US20230365530, Example 58]	< 100
COc1cc2c(NC3CCN(C(C)C)CC3)nc(N(C)CC(=O)OC(C)(C)C)nc2cc1C#CCCN1CCCC1 [US20230365530, Example 82]	< 100
